# Read-outs that look alike come from different tables or passages of the source.
# Experiments:
# CD-1 female mice = test: LPA challenge with plasma histamine evaluation (acute in vivo histamine assay); parameters: species or system mouse; conditions: 3 mg/kg dose; for histamine (change of plasma histamine after LPA challenge): CD-1 mice, p.o. 2 hours prior to LPA challenge
# Method: LPA Challenge with Plasma Histamine Evaluation.
# Compound is dosed orally p.o. 2 hours to CD-1 female mice prior to the LPA challenge. The mice are then dosed via tail vein (IV) with 0.15 mL of LPA in 0.1% BSA/PBS ([…]). Exactly 2 minutes following the LPA challenge, the mice are euthanized by decapitation and the trunk blood is collected. These samples are collectively centrifuged and individual 75 μL samples are frozen at −20° C. until the time of the histamine assay.
# The plasma histamine analysis was run by standard EIA (Enzyme Immunoassay) methods. Plasma samples were thawed and diluted 1:30 in 0.1% BSA in PBS. The EIA protocol for histamine analysis as outlined by the manufacturer was followed (Histamine EIA, Oxford Biomedical Research, EA #31).
# The LPA used in the assay is formulated as follows: LPA (1-oleoyl-2-hydroxy-sn-glycero-3-phosphate (sodium salt), 857130P, Avanti Polar Lipids) is prepared in 0.1% BSA/PBS for total concentration of 2 μg/μL. 13 mg of LPA is weighed and 6.5 mL 0.1% BSA added, vortexed and sonicated for ˜1 hour until a clear solution is achieved.
# human LPA1 = target: T1, human LPA1 (Homo sapiens, UniProt Q92633); test: LPA1 functional antagonist assay (LPA-induced calcium flux); type: cell-based; conditions: read-out: hLPA1 IC50
# T1 construct: expressed in transfected cells; host or cells: Chinese hamster ovary (CHO) cells
# T1 sequence (Q92633 whole entry): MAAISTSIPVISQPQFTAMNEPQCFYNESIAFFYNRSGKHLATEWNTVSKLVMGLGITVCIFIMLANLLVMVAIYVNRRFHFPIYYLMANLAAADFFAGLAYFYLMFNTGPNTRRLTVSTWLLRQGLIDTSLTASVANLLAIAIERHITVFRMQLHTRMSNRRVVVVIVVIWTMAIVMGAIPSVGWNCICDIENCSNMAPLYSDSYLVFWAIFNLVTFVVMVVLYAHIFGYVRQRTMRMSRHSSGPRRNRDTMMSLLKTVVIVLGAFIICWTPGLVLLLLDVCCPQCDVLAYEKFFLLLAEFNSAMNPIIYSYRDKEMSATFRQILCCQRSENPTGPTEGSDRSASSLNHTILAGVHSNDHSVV
# In short: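 CHO cells overexpressing human LPA1, loaded with calcium dye 30 min at 37° C, were preincubated 20 min at room temperature with compound (0.08 nM–5 μM, 0.5% DMSO) in HBSS/20 mM HEPES/0.1% fatty acid-free BSA.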
# nerve-injured mice = conditions: pretreatment; cited from earlier work
# [1] = test system: human foetal lung fibroblasts; conditions: cited from earlier work
# UUO mice = UUO mice treated with the antagonist; cited from earlier work
# [2] = test system: pancreatic cancer cell lines; conditions: cited from earlier work
# [3] = test system: mouse epithelial renal cell line, MCT; conditions: MCT cells, co-treatment with LPA; cited from earlier work
# [4] = CHO cells overexpressing human LPA1, inhibition of calcium flux induced by 10 nM LPA
compound,measurement,setting,value
"Cc1nc(-c2nnn(C)c2COC(=O)N(C)C2CCCC2)ccc1O[C@H]1CCC[C@H](C(=O)O)C1 [Example 1, (1S,3S)-3-((6-(5-(((cyclopentyl(methyl)carbamoyl)oxy)methyl)-1-methyl-1H-1,2,3-triazol-4-yl)-2-methylpyridin-3-yl)oxy)cyclohexane-1-carboxylic Acid]",histamine (change of plasma histamine after LPA challenge),CD-1 female mice,−97%
"CN(C(=O)OCc1c(-c2ccc(O[C@H]3CCC[C@H](C(=O)O)C3)cc2)nnn1C)C1CCCC1 [Example 5, (1S,3S)-3-(4-(5-(((Cyclopentyl(methyl)carbamoyl)oxy)methyl)-1-methyl-1H-1,2,3-triazol-4-yl)phenoxy)cyclohexanecarboxylic acid]",histamine (change of plasma histamine after LPA challenge),CD-1 female mice,−90%
"C[C@H](C1CC1)N(C)C(=O)OCc1c(-c2ccc(O[C@H]3CCC[C@H](C(=O)O)C3)cc2)nnn1C [Example 51, (1S,3S)-3-(4-(5-(((((R)-1-cyclopropylethyl)(methyl)carbamoyl)oxy)methyl)-1-methyl-1H-1,2,3-triazol-4-yl)phenoxy)cyclohexane-1-carboxylic acid]",In vivo acute histamine assay: % histamine,CD-1 female mice,−73%
same,IC50,human LPA1,24 nM
"CN(C(=O)OCc1c(-c2ccc(O[C@H]3CCC[C@H](C(=O)O)C3)c(C#N)n2)nnn1C)C1CCC1 [Example 293, (1S,3S)-3-((2-cyano-6-(5-(((cyclobutyl(methyl)carbamoyl)oxy)methyl)-1-methyl-1H-1,2,3-triazol-4-yl)pyridin-3-yl)oxy)cyclohexane-1-carboxylic acid]",IC50,human LPA1; [4],23 nM
"CN(C(=O)OCc1c(-c2ccc(O[C@H]3CCC[C@H](C(=O)O)C3)c(C#N)n2)nnn1C)C1CCCC1 [Example 294, (1S,3S)-3-((2-cyano-6-(5-(((cyclopentyl(methyl)carbamoyl)oxy)methyl)-1-methyl-1H-1,2,3-triazol-4-yl)pyridin-3-yl)oxy)cyclohexane-1-carboxylic acid]",IC50,human LPA1; [4],15 nM
C[C@@H](N)[C@H]1CC[C@H](C(=O)Nc2ccncc2)CC1 [Example Y-27632],allodynia and hyperalgesia,nerve-injured mice,completely abolished
Cc1noc(-c2ccc(CSCCC(=O)O)cc2)c1NC(=O)OC(C)c1ccccc1Cl (stereo not drawn) [Ki16425],chemotaxis of human foetal lung fibroblasts induced by BAL from IPF patients,[1],blocked
same,development of renal fibrosis in UUO mice,UUO mice,closely resembled the profile of LPA1 (−/−) mice
same,LPA-induced and ascites-induced invasion activity,[2]; highly peritoneal metastatic pancreatic cancer cell line,blocked
same,in vitro migration in response to LPA and peritoneal fluid (ascites) from pancreatic cancer patients,[2]; pancreatic cancer cell lines,effectively blocked
same,LPA-induced increase in expression of CTGF,[3],almost completely suppressed
